Data set [1] has as its system respiration rate. It counts as in vivo, C57BL6/J mice. The note with it: 30 mg/kg sc.
Data set [2] concerns spontaneous ambulation. It counts as in vivo, C57BL6/J mice. The note with it: C6-Quino 30 mg/kg s.c.; morphine 10 or 30 mg/kg s.c.
Data set [3] is described as follows: in vitro. The data set is classed as in vitro ADME. The note with it: human, microsomes, pH 7.4.
Data set [4] has as its system seizurogenic activity.
The test system of data set [5] is seizurogenic activity. The note with it: mouse, in vivo.

Read-outs that look alike come from different tables or passages of the source.

Consider 4 molecules from paper PMC11906898 (Nature Communications, 2025).

Take `CN1CC[C@]23c4c5ccc(O)c4O[C@H]2[C@@H](O)C=C[C@H]3[C@H]1C5` [morphine]: the breath rate entry in data set [1] is given as “showed respiratory depression”. Also, the locomotion result in data set [2] is on record as “significant increase in locomotion above baseline”. For orientation: half-life means the time in which the quantity being followed falls by half. For `CCN(CC)CCNC(=O)c1c(C)[nH]c(/C=C2\C(=O)Nc3ccc(F)cc32)c1C` [Sunitinib], the half-life in data set [3] was 27 min. With SNC80, in data set [4] (mouse, in vivo), the “seizures after intracerebroventricular dosing” value was “caused robust seizures”. In data set [5], the duration of seizures was 20 min and the “seizures after sc dosing” value is “produced robust seizures”.

With TAN67, the “seizures after intracerebroventricular dosing” value in data set [4] (100 nmol i.c.v.) is given as “caused robust seizures”.
